According to the NIST ThermoML archive (doi:10.1016/j.fluid.2011.08.009):
Numbers after ± are expanded uncertainties.

Conditions: Liquid, Closed cell (Static) method

vapor or sublimation pressure (342.18 K) [kPa]	vapor or sublimation pressure (352.68 K) [kPa]	vapor or sublimation pressure (329.22 K) [kPa]	vapor or sublimation pressure (313.17 K) [kPa]	vapor or sublimation pressure (323.18 K) [kPa]	vapor or sublimation pressure (342.83 K) [kPa]	SMILES
0.36 ± 0.1	0.75 ± 0.1					CCCCCCCCCCCC [dodecane]
		65.63 ± 0.67				CCCCCC [hexane]
			7.36 ± 0.14	12.18 ± 0.19	30.65 ± 0.22	O [water]
	49.8 ± 0.4		6.99 ± 0.19		31.45 ± 0.24	CCCO [propan-1-ol]
	44.66 ± 0.35	14.55 ± 0.21		10.74 ± 0.16	28.43 ± 0.28	CCC(C)O (stereo not drawn) [butan-2-ol]
